Patent US20240270809A1, “ORAL GLP RECEPTOR AGONISTS” (priority 2020, published 2024)
Positions of bridges follow the written chain, without caps; N, C: chain ends. Non-standard residues stand in square brackets, D forms with d. Residues, ends and D or L forms follow the SMILES beside them. *: point of attachment. Malonyl(2,2-Me2,histaminyl) = CC(C)(C(=O)NCCc1cnc[nH]1)C(=O)*; Ala(1H-tetrazol-5-yl) = N[C@@H](Cc1nnn[nH]1)C(=O)O; αMePhe(2-F) = C[C@](N)(Cc1ccccc1F)C(=O)O; αMeL = CC(C)C[C@](C)(N)C(=O)O; Nle = CCCC[C@H](N)C(=O)O; Aib = CC(C)(N)C(=O)O

Assays:
human GLP2 receptor = target: T1, human GLP2 receptor (Homo sapiens, UniProt O95838); test: cAMP accumulation assay, functional agonism of human GLP2 receptor; format: cell-based; settings: HEK cells infected with human GLP2 receptor BacMam virus, HTRF cAMP; for Emax: HEK293, read-out: Human GLP-2R agonist cAMP Emax; for EC50: read-out: Human GLP-2R agonist cAMP pEC50 (converted)
T1 construct: expressed in transfected cells; host or cells: HEK cells, BacMam virus transduction
T1 sequence (O95838 1-553): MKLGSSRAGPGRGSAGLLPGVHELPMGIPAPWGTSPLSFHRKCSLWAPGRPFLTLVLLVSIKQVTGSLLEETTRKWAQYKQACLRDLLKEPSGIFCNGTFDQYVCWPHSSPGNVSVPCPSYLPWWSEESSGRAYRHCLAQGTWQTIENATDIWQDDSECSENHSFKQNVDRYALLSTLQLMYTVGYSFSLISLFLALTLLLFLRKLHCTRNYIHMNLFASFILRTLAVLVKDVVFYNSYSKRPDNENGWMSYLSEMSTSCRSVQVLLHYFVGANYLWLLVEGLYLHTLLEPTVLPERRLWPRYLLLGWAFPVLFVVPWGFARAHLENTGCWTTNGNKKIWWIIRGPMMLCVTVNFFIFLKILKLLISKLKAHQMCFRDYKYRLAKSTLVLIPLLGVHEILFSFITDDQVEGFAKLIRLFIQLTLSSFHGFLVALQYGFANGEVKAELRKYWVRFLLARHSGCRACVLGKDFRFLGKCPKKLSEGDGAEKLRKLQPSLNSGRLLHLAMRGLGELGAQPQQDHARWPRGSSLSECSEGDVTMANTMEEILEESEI
Experimental: (§1) CAMP production upon agonist stimulation of human GLP2 or GLP1 receptor was assessed utilizing HiRange cAMP kit (Cisbio). In brief, HEK cells were infected with either human GLP2 or GLP1 receptor BacMam virus for 24 hours and frozen for later use in the assay. […] Cells were prepared in the assay buffer (HBSS (Lonza) supplemented with 0.5 mM IBMX (Tocris)). After 45 min incubation at 37° C., the reaction was stopped by addition of the HTRF detection reagents in the lysis buffer provided in the kit.

human GLP1 receptor = target: T2, human GLP1 receptor (Homo sapiens, UniProt P43220); test: cAMP accumulation assay, functional agonism of human GLP1 receptor; format: cell-based; settings: HEK cells infected with human GLP1 receptor BacMam virus, HTRF cAMP; for Emax: HEK293, read-out: Human GLP-1R agonist cAMP Emax; for EC50: read-out: Human GLP-1R agonist cAMP pEC50 (converted)
T2 construct: expressed in transfected cells; host or cells: HEK cells, BacMam virus transduction
Experimental: as §1

T2 sequence (P43220 24-463): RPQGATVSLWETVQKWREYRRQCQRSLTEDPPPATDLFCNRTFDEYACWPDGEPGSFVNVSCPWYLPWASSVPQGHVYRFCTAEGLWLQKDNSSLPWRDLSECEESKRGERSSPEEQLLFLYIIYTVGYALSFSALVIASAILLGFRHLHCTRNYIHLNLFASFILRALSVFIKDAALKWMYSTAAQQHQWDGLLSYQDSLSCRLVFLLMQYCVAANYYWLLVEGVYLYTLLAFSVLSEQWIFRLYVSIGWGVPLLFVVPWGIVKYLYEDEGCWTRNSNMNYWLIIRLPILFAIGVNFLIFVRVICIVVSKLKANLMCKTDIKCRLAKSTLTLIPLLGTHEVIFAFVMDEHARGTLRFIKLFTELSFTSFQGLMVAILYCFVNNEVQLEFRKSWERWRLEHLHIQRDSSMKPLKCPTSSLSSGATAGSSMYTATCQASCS

Emax (human GLP2 receptor)	EC50 (human GLP2 receptor)	Emax (human GLP1 receptor)	EC50 (human GLP1 receptor)	SMILES
96.4%	0.398 nM	94.1%	0.2 nM	CCCC[C@H](NC(=O)[C@H](CCC(=O)O)NC(=O)[C@@H]1CC(=O)NCCCC[C@H](NC(=O)[C@H](Cc2nn[nH]n2)NC(=O)C(C)(C)C(=O)NCCc2c[nH]cn2)C(=O)N[C@@H](CO)C(=O)N[C@@H](Cc2ccccc2)C(=O)N[C@@H](CO)C(=O)N1)C(=O)N[C@H](Cc1ccccc1)C(=O)N[C@H]1CCCCNC(=O)C[C@@H](C(=O)N[C@@H](CCCCN)C(=O)N[C@@H](C)C(=O)N[C@@H](C)C(=O)NC(C)(C)C(=O)N[C@@H](CC(=O)O)C(=O)N[C@@H](Cc2ccccc2)C(=O)N[C@H](C(=O)N[C@H]2CCC(=O)NCCCC[C@@H](C(=O)N[C@H]3CCC(=O)NCCCC[C@@H](C(N)=O)NC(=O)[C@H]([C@@H](C)O)NC(=O)[C@H]([C@@H](C)CC)NC(=O)[C@H](CCCCN)NC3=O)NC(=O)[C@H]([C@@H](C)CC)NC(=O)[C@H](CC(C)C)NC(=O)[C@H](Cc3c[nH]c4ccccc34)NC2=O)[C@@H](C)CC)NC(=O)[C@H](CC(=O)O)NC(=O)[C@H](CC(C)C)NC(=O)[C@H]([C@@H](C)CC)NC1=O [Example 42] ({Malonyl(2,2-Me2,histaminyl)}-[Ala(1H-tetrazol-5-yl)]KSFSDE[Nle][dF]KILDDKAA[Aib]DFIEWLIKEKITK-NH2; lactam 2-6, 10-14, 22-26, 27-31; C-terminus assumed)
104%	0.631 nM	96.1%	0.2 nM	CCCC[C@H](NC(=O)[C@H](CCC(=O)O)NC(=O)[C@@H]1CC(=O)NCCCC[C@H](NC(=O)[C@H](Cc2nn[nH]n2)NC(=O)C(C)(C)C(=O)NCCc2c[nH]cn2)C(=O)N[C@@H](CO)C(=O)N[C@@H](Cc2ccccc2)C(=O)N[C@@H](CO)C(=O)N1)C(=O)N[C@H](Cc1ccccc1)C(=O)N[C@H](C(=O)N[C@@](C)(CC(C)C)C(=O)N[C@@H](CC(C)C)C(=O)N[C@@H](CC(=O)O)C(=O)N[C@H]1CCC(=O)NCCCC[C@@H](C(=O)N[C@@H](CC(=O)O)C(=O)N[C@@H](Cc2ccccc2)C(=O)N[C@H](C(=O)N[C@H]2CCC(=O)NCCCC[C@@H](C(=O)N[C@H](C(=O)N[C@H]3CCC(=O)NCCCC[C@@H](C(N)=O)NC(=O)[C@H]([C@@H](C)O)NC(=O)[C@H]([C@@H](C)CC)NC3=O)[C@@H](C)O)NC(=O)[C@H]([C@@H](C)CC)NC(=O)[C@H](CC(C)C)NC(=O)[C@H](Cc3c[nH]c4ccccc34)NC2=O)[C@@H](C)CC)NC(=O)[C@H](C)NC(=O)[C@H](C)NC(=O)[C@H](CCCCN)NC1=O)[C@@H](C)O [Example 44] ({Malonyl(2,2-Me2,histaminyl)}-[Ala(1H-tetrazol-5-yl)]KSFSDE[Nle][dF]T[αMeL]LDEKAAKDFIEWLIKTEITK-NH2; lactam 2-6, 14-18, 22-26, 28-31; C-terminus assumed)
104%	0.158 nM	93.6%	0.316 nM	CCCC[C@H](NC(=O)[C@H](CCC(=O)O)NC(=O)[C@@H]1CC(=O)NCCCC[C@H](NC(=O)[C@H](CC(=O)O)NC(=O)C(C)(C)NC(=O)[C@@H](N)Cc2c[nH]cn2)C(=O)N[C@@H](CO)C(=O)N[C@@H](Cc2ccccc2)C(=O)N[C@@H](CO)C(=O)N1)C(=O)N[C@H](Cc1ccccc1)C(=O)N[C@H]1CCCCNC(=O)C[C@@H](C(=O)N[C@@H](CCCCN)C(=O)N[C@@H](C)C(=O)N[C@@H](C)C(=O)NC(C)(C)C(=O)N[C@@H](CC(=O)O)C(=O)N[C@@H](Cc2ccccc2)C(=O)N[C@H](C(=O)N[C@H]2CCC(=O)NCCCC[C@@H](C(=O)N[C@H]3CCC(=O)NCCCC[C@@H](C(N)=O)NC(=O)[C@H]([C@@H](C)O)NC(=O)[C@H]([C@@H](C)CC)NC(=O)[C@H](CCCCN)NC3=O)NC(=O)[C@H]([C@@H](C)CC)NC(=O)[C@H](CC(C)C)NC(=O)[C@H](Cc3c[nH]c4ccccc34)NC2=O)[C@@H](C)CC)NC(=O)[C@H](CC(=O)O)NC(=O)[C@H](CC(C)C)NC(=O)[C@H]([C@@H](C)CC)NC1=O [Example 47] (H-H[Aib]DKSFSDE[Nle][dF]KILDDKAA[Aib]DFIEWLIKEKITK-NH2; lactam 4-8, 12-16, 24-28, 29-33; N-terminus and C-terminus assumed)
101%	0.0316 nM	88.8%	0.631 nM	CCCC[C@@H]1NC(=O)[C@H](CCC(=O)O)NC(=O)[C@@H](NC(=O)[C@H](CO)NC(=O)[C@](C)(Cc2ccccc2F)NC(=O)[C@H](CO)NC(=O)[C@@H](C)NC(=O)[C@H](CCC(N)=O)NC(=O)C(C)(C)C(=O)NCCc2c[nH]cn2)CCCCNC(=O)C[C@@H](C(=O)N[C@H](C(=O)N[C@@H](CC(C)C)C(=O)N[C@@H](CC(=O)O)C(=O)N[C@H]2CCC(=O)NCCCC[C@@H](C(=O)N[C@@H](CC(=O)O)C(=O)N[C@@H](Cc3ccccc3)C(=O)N[C@H](C(=O)N[C@H]3CCCCNC(=O)C[C@@H](C(=O)N[C@H]4CCC(=O)NCCCC[C@@H](C(N)=O)NC(=O)[C@H]([C@@H](C)O)NC(=O)[C@H]([C@@H](C)CC)NC(=O)[C@H](CCCCN)NC4=O)NC(=O)[C@H]([C@@H](C)CC)NC(=O)[C@H](CC(C)C)NC(=O)[C@H](Cc4c[nH]c5ccccc45)NC3=O)[C@@H](C)CC)NC(=O)[C@H](C)NC(=O)[C@H](C)NC(=O)[C@H](CCCCN)NC2=O)[C@@H](C)CC)NC(=O)[C@@H](Cc2ccccc2)NC1=O [Example 54] ({Malonyl(2,2-Me2,histaminyl)}-Q[dA]S[αMePhe(2-F)]SKE[Nle][dF]DILDEKAAKDFIKWLIDEKITK-NH2; lactam 6-10, 14-18, 22-26, 27-31 (inferred); C-terminus assumed)
99.7%	0.1 nM	96.9%	1 nM	CCCC[C@H](NC(=O)[C@H](CCC(=O)O)NC(=O)[C@@H]1CC(=O)NCCCC[C@H](NC(=O)[C@H](CCC(N)=O)NC(=O)C(C)(C)NC(=O)[C@@H](N)Cc2c[nH]cn2)C(=O)N[C@@H](CO)C(=O)N[C@@H](Cc2ccccc2)C(=O)N[C@@H](CO)C(=O)N1)C(=O)N[C@H](Cc1ccccc1)C(=O)N[C@H](C(=O)N[C@@](C)(CC(C)C)C(=O)N[C@@H](CC(C)C)C(=O)N[C@@H](CC(=O)O)C(=O)N[C@H]1CCC(=O)NCCCC[C@@H](C(=O)N[C@@H](CC(=O)O)C(=O)N[C@@H](Cc2ccccc2)C(=O)N[C@H](C(=O)N[C@H]2CCC(=O)NCCCC[C@@H](C(=O)N[C@H]3CCC(=O)NCCCC[C@@H](C(N)=O)NC(=O)[C@H]([C@@H](C)O)NC(=O)[C@H]([C@@H](C)CC)NC(=O)[C@H](CCCCN)NC3=O)NC(=O)[C@H]([C@@H](C)CC)NC(=O)[C@H](CC(C)C)NC(=O)[C@H](Cc3c[nH]c4ccccc34)NC2=O)[C@@H](C)CC)NC(=O)[C@H](C)NC(=O)[C@H](C)NC(=O)[C@H](CCCCN)NC1=O)[C@@H](C)O [Example 63] (H-H[Aib]QKSFSDE[Nle][dF]T[αMeL]LDEKAAKDFIEWLIKEKITK-NH2; lactam 4-8, 16-20, 24-28, 29-33 (inferred); C-terminus assumed)
103%	0.0794 nM	94%	0.316 nM	CCCC[C@H](NC(=O)[C@H](CCC(=O)O)NC(=O)[C@@H]1CC(=O)NCCCC[C@H](NC(=O)[C@H](CC(=O)O)NC(=O)C(C)(C)C(=O)NCCc2c[nH]cn2)C(=O)N[C@@H](CO)C(=O)N[C@@H](Cc2ccccc2)C(=O)N[C@@H](CO)C(=O)N1)C(=O)N[C@H](Cc1ccccc1)C(=O)N[C@H](C(=O)N[C@@](C)(CC(C)C)C(=O)N[C@@H](CC(C)C)C(=O)N[C@@H](CC(=O)O)C(=O)N[C@H]1CCC(=O)NCCCC[C@@H](C(=O)N[C@@H](CC(=O)O)C(=O)N[C@@H](Cc2ccccc2)C(=O)N[C@H](C(=O)N[C@H]2CCC(=O)NCCCC[C@@H](C(=O)N[C@H]3CCC(=O)NCCCC[C@@H](C(N)=O)NC(=O)[C@H]([C@@H](C)O)NC(=O)[C@H]([C@@H](C)CC)NC(=O)[C@H](CCCCN)NC3=O)NC(=O)[C@H]([C@@H](C)CC)NC(=O)[C@H](CC(C)C)NC(=O)[C@H](Cc3c[nH]c4ccccc34)NC2=O)[C@@H](C)CC)NC(=O)[C@H](C)NC(=O)[C@H](C)NC(=O)[C@H](CCCCN)NC1=O)[C@@H](C)O [Example 68] ({Malonyl(2,2-Me2,histaminyl)}-DKSFSDE[Nle][dF]T[αMeL]LDEKAAKDFIEWLIKEKITK-NH2; lactam 2-6, 14-18, 22-26, 27-31 (inferred); C-terminus assumed)
